According to publication PMC12720098, “Prolintane analogs as hybrid monoamine transporter ligands: Structural determinants and species differences” (The Journal of Biological Chemistry, 2025):
Read-outs that look alike come from different tables or passages of the source.

Key:
hDAT = target: T1, hDAT (Homo sapiens, UniProt Q01959); assay: Uptake inhibition assay ([3H]DA) in transfected HEK293 cells; assay type: cell-based; conditions: for DAT/SERT ratio: human isoform (h), 1/DAT IC50 / 1/SERT IC50
T1 construct: expressed in transfected cells
Description: HEK293 cells stably expressing human monoamine transporters hSERT, hDAT or hNET were seeded into poly-D-lysine (PDL) coated 96-well plates with a density of approximately 36,000 cells per well 1 day prior to experiments. A day after seeding, the cell medium was replaced with 200 μl Krebs-HEPES-buffer (KHB; 120 mM NaCl, 3 mM KCl, 2 mM CaCl2·2H2O, 2 mM MgCl2·6H2O, 20 mM D-glucose, pH = 7.3). The test drugs were initially dissolved in Milli-Q H2O or dimethyl sulfoxide (DMSO) at a concentration of 10 to 100 mM. Then, cells were treated with the respective concentration of the test drug diluted in KHB for 5 min as a pre-incubation step. Subsequently, in the uptake step, the solution was replaced with 50 μl/well diluted drug solution and tritiated substrate (hDAT: 0.1 μM [^3H]DA; hNET: 0.02 μM [^3H]MPP^+; hSERT: 0.1 μM [^3H]5-HT) for 1 min (hDAT, hSERT) or 3 min (hNET). After incubation, cells were immediately washed with 200 μl KHB to stop uptake. Uptake was indirectly measured by quantifying beta emission with liquid scintillation counting (Wallac 1450 MicroBeta TriLux Liquid Scintillation Counter & Lumi; GMI). Therefore, 200 μl Ultima Gold XR scintillation cocktail (PerkinElmer, MA, USA) was added to each well.
(§1) Half-maximal inhibitory concentrations (IC50) were obtained from fitting a sigmoidal dose–response ( Y=Bottom+Top−Bottom/1+10^((LogIC50−X)·HillSlope) ) in GraphPad Prism 10.3.1 (GraphPad Software Inc.). Uptake inhibition data were evaluated by one-way ANOVA followed by Tukey's multiple comparisons test. Release data were analyzed using a two-way ANOVA (batch release) or a mixed-effects model with Geisser-Greenhouse correction (time-dependent traces) employing Šidák correction for comparing differences between compounds with or without the addition of monensin.

rDAT = target: T2, rDAT (Rattus norvegicus, UniProt P23977); assay: Uptake inhibition assay ([3H]dopamine) in rat brain synaptosomes; assay type: biochemical; conditions: for DAT/SERT ratio: rat isoform (r), 1/DAT IC50 / 1/SERT IC50
T2 construct: As a means to evaluate transporter activity of prolintane analogs in native tissue preparation; from tissue; host or cells: rat caudate synaptosomes
Description: Rats were killed by CO2 narcosis and decapitated, then synaptosomes were prepared from brains using standard procedures. In brief, synaptosomes were prepared from caudate tissue for rat DAT (rDAT) assays, or from whole brain minus caudate and cerebellum for rat NET (rNET) and rat SERT (rSERT) assays. Brain tissue was homogenized in ice-cold 10% sucrose followed by centrifugation at 1000g for 10 min. The resulting supernatant containing crude synaptosomes was kept on ice until use in uptake or release procedures. Uptake inhibition and release assays were carried out as previously described ([62], [63]).
For uptake inhibition assays, 5 nM [^3H]dopamine, 10 nM [^3H]norepinephrine, or 5 nM [^3H]5-HT was used as the radiolabeled transmitter for rDAT, rNET, or rSERT, respectively. To optimize uptake for a single transporter, unlabeled blockers were included that prevented uptake of [^3H]transmitter by competing transporters: 50 nM GBR 12935 was added to NET and SERT assays to block DAT, 100 nM nomifensine was added to SERT assays to block NET. Uptake assays were initiated by adding 100 μl of tissue to 900 μl Krebs-phosphate buffer (126 mM NaCl, 2.4 mM KCl, 0.83 mM CaCl2, 0.8 mM MgCl2, 0.5 mM KH2PO4, 0.5 mM Na2SO4, 11.1 mM glucose, 0.05 mM pargyline, 1 mg/ml bovine serum albumin, and 1 mg/ml ascorbic acid, pH 7.4) containing test drug and [^3H]transmitter. Uptake assays were terminated by rapid vacuum filtration, and retained radioactivity was quantified with liquid scintillation counting.
Effects of test drugs on release and uptake inhibition were analyzed by nonlinear regression using GraphPad Prism 9 (GraphPad Scientific, San Diego, CA, USA). Concentration–response values for the uptake inhibition and release were fit to the equation, Y(x)=Ymin+Ymax−Ymin/1+10^((LogP50−LogX)·n) , where x is the concentration of the compound tested, Y(x) is the response measured, Ymax is the maximal response, P50 is either IC50 (the concentration that yields half-maximal uptake inhibition response) or EC50 (the concentration that yields half-maximal release response), and n is the Hill slope parameter.

hSERT [1] = target: T3, hSERT (Homo sapiens, UniProt P31645); assay type: cell-based; conditions: batch release, % efflux of total uptake, compounds approximately at IC50 concentration
T3 construct: expressed in transfected cells
Description: Batch release assays were performed as described previously ([44]). In brief, HEK293 cells stably expressing monoamine transporters were seeded similar to the procedure used for uptake inhibition assays. A day after seeding cells were pre-loaded with 50 μl/well 0.015 μM [^3H]MPP^+ (hDAT, hNET), or 0.08 μM [^3H]5-HT (hSERT) for 20 min at 37 °C. Then cells were washed four times for 3 to 4 min each and further incubated with KHB or KHB + monensin. After 10 min of incubation, two (screening) to four (full traces; hSERT) 2 min incubations were performed to establish a baseline release without substance. […] Each fraction was transferred to an empty well in the 96-well plate. For screening, a known inhibitor (hDAT, hNET: 50 μM GBR12909) and releaser (hDAT, hNET: 10 μM S-(+)-amphetamine) were used as controls. Ultima Gold XR scintillation cocktail was added to the remaining cells, and each well contained a release fraction. The counted radioactivity in the respective fraction was expressed as a percentage of total radioactivity at the start of the fraction.
as §1

hSERT [2] = target: T3, hSERT; assay type: cell-based; conditions: for Mean diff, hSERT efflux ± Mon (Šídák's multiple comparisons test): drug alone vs drug + monensin (Mon); for hSERT efflux ± Mon, mean diff: superfusion
Description: A day prior to the experiment, HEK293 cells stably expressing hSERT or rat SERT (rSERT) were seeded at a density of 100,000 cells per channel into 6 channel flow ibidi slides (Gräfelfing, Germany). On the day of the experiments, cells were preloaded with 0.1 μM [^3H]5-HT at 37 °C, 5% CO2 for 20 min. Subsequently, the slides were transferred to the superfusion apparatus ([59]). Cells were then washed with KHB for 15 min under a constant flow of 0.5 ml/min. Fractions were collected every 2 min in 8 ml vials containing 2 ml scintillation cocktail. Collection began with three baseline fractions using KHB, followed by four additional basal release fractions with KHB, either with or without 10 μM monensin. […] To assess residual radioactivity within the cells, they were lysed with 1% sodium dodecyl sulfate (SDS), and three final fractions were obtained. The measured tritiated substrate in each fraction was expressed as a percentage of the initial tritiated substrate present at the start of that fraction.
as §1

T1 sequence (Q01959 whole entry, canonical isoform): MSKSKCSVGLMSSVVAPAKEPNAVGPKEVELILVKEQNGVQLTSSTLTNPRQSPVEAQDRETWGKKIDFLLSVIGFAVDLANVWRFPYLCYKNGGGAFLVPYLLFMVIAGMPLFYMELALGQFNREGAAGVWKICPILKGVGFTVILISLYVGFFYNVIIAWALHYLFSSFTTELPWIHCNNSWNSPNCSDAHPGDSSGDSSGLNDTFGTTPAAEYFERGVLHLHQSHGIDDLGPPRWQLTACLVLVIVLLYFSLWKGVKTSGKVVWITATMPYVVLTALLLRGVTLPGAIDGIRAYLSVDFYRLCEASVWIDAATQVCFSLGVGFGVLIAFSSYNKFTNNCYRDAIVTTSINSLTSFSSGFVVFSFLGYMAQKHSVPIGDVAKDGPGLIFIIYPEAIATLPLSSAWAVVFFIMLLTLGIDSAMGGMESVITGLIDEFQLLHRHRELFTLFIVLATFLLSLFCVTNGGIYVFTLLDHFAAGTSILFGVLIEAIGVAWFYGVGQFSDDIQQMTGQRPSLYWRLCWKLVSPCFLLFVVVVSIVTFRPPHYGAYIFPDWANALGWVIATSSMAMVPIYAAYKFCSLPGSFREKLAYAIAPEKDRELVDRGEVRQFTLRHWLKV
T2 sequence (P23977 whole entry, canonical isoform): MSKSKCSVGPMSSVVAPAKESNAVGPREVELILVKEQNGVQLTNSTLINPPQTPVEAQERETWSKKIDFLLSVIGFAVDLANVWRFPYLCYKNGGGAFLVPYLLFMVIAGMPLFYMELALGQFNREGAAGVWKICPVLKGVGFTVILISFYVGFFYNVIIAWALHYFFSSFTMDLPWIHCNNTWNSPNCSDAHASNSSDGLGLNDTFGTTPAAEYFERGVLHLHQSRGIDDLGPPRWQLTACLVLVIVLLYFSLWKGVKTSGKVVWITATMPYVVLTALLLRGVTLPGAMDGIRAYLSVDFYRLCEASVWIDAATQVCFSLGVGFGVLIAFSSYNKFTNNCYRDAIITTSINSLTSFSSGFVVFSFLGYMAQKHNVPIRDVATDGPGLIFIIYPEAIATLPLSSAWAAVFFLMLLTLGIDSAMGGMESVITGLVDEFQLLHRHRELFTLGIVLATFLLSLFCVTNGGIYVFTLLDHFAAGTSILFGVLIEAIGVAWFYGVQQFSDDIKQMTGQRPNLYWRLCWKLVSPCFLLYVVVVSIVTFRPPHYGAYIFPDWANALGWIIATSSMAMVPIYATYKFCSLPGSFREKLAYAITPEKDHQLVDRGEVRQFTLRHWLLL
T3 sequence (P31645 whole entry): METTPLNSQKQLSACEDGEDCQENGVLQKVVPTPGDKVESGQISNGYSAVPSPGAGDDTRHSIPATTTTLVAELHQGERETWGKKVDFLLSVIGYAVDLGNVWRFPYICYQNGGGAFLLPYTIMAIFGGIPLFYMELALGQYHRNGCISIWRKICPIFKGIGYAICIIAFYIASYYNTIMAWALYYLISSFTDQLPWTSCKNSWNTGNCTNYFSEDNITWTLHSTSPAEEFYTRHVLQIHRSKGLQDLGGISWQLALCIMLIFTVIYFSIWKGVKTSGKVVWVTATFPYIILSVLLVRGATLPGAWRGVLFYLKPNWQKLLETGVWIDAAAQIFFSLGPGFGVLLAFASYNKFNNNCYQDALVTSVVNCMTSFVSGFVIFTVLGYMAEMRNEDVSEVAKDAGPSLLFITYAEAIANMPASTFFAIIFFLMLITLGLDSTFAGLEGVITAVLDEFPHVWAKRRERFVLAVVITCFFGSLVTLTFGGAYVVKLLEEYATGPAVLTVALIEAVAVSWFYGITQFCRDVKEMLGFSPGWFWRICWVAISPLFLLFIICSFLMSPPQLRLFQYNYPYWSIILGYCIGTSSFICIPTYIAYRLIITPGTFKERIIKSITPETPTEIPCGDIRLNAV

Structure (SMILES) | IC50 (hDAT) [nM] | DAT/SERT ratio (hDAT) | IC50 (rDAT) [nM] | DAT/SERT ratio (rDAT) | hSERT-mediated efflux, predicted (LS) mean diff, No mon - Mon (hSERT [1]) | Mean diff, hSERT efflux ± Mon (Šídák's multiple comparisons test) (hSERT [2]; Row 1 (time fraction)) | Mean diff, hSERT efflux ± Mon (Šídák's multiple comparisons test) (hSERT [2]; Row 2 (time fraction)) | Mean diff, hSERT efflux ± Mon (Šídák's multiple comparisons test) (hSERT [2]; Row 3 (time fraction)) | Mean diff, hSERT efflux ± Mon (Šídák's multiple comparisons test) (hSERT [2]; Row 4 (time fraction)) | Mean diff, hSERT efflux ± Mon (Šídák's multiple comparisons test) (hSERT [2]; Row 5 (time fraction)) | Mean diff, hSERT efflux ± Mon (Šídák's multiple comparisons test) (hSERT [2]; Row 6 (time fraction)) | Mean diff, hSERT efflux ± Mon (Šídák's multiple comparisons test) (hSERT [2]; Row 7 (time fraction)) | Mean diff, hSERT efflux ± Mon (Šídák's multiple comparisons test) (hSERT [2]; Row 8 (time fraction)) | Mean diff, hSERT efflux ± Mon (Šídák's multiple comparisons test) (hSERT [2]; Row 9 (time fraction)) | Mean diff, hSERT efflux ± Mon (Šídák's multiple comparisons test) (hSERT [2]; Row 10 (time fraction)) | Mean diff, hSERT efflux ± Mon (Šídák's multiple comparisons test) (hSERT [2]; Row 11 (time fraction)) | Mean diff, hSERT efflux ± Mon (Šídák's multiple comparisons test) (hSERT [2]; Row 12 (time fraction)) | other results
CCCC(Cc1ccc(F)cc1)N1CCCC1 (stereo not shown) [4-Fluoroprolintane, 1-[1-(4-fluorophenyl)pentan-2-yl]pyrrolidine] | 109 ± 41 | 179 | 213 ± 13 | 4.2 | -7.206 | -0,0007778 | 0,02200 | 0,004889 | -0,08044 | -0,1983 | -0,2323 | -0,3017 | -8,349 | -9,598 | -8,382 | -7,454 | -6,666 | –
CCCC(Cc1ccc(C)cc1)N1CCCC1 (stereo not shown) [4-Methylprolintane, 1-[1-(4-methylphenyl)pentan-2-yl]pyrrolidine] | 16 ± 2 | 159 | 37 ± 3 | 1.9 | -4.314 | -0,002444 | 0,005667 | -0,04278 | -0,1390 | -0,3006 | -0,3681 | -0,4242 | -4,103 | -5,748 | -5,723 | -5,744 | -5,949 | inhibitory potency at hDAT compared to pyrovalerone (hDAT; pyrovalerone value ref 53): four-fold greater
CCCC(Cc1ccccc1)N1CCCC1 (stereo not shown) [Prolintane, 1-(1-phenylpentan-2-yl)pyrrolidine] | 43 ± 24 | 670 | 61 ± 6 | 38 | -7.218 | – | – | – | – | – | – | – | – | – | – | – | – | hSERT efflux ± Mon, mean diff (hSERT [2]; Row 1 (2 min fraction 1, baseline KHB)): 0.02682; hSERT efflux ± Mon, mean diff (hSERT [2]; Row 2 (2 min fraction 2, baseline KHB)): 0.1025; hSERT efflux ± Mon, mean diff (hSERT [2]; Row 3 (2 min fraction 3, baseline KHB)): 0.1806; hSERT efflux ± Mon, mean diff (hSERT [2]; Row 4 (fraction 4, KHB with or without 10 μM monensin)): 0.1203; hSERT efflux ± Mon, mean diff (hSERT [2]; Row 5 (fraction 5, KHB with or without 10 μM monensin)): 0.07151; hSERT efflux ± Mon, mean diff (hSERT [2]; Row 6 (fraction 6, KHB with or without 10 μM monensin)): -0.1392; hSERT efflux ± Mon, mean diff (hSERT [2]; Row 7 (fraction 7, KHB with or without 10 μM monensin)): -0.1744; hSERT efflux ± Mon, mean diff (hSERT [2]; Row 8 (fraction 8, compound at IC50 concentration)): -5.479; hSERT efflux ± Mon, mean diff (hSERT [2]; Row 9 (fraction 9, compound at IC50 concentration)): -6.902; hSERT efflux ± Mon, mean diff (hSERT [2]; Row 10 (fraction 10, compound at IC50 concentration)): -6.703; hSERT efflux ± Mon, mean diff (hSERT [2]; Row 11 (fraction 11, compound at IC50 concentration)): -6.503; hSERT efflux ± Mon, mean diff (hSERT [2]; Row 12 (fraction 12, compound at IC50 concentration)): -6.083
